Assay results from patent US11459315B2, “Modulators of methyl modifying enzymes, compositions and uses thereof” (Constellation Pharmaceuticals, Inc., priority 2017, dated 2022).
Read-outs that look alike come from different tables or passages of the source.

Key:
[1] = test system: H3K27me3 mark in HeLa cells (EZH2); assay: H3K27me3 Alpha Hela Assay (AlphaLISA); format: cell-based
Procedure, shortened: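 HeLa cells (1,000/well) treated with ten 3-fold compound doses for 72 h at 37 °C; lysates extracted and H3K27me3 detected by AlphaLISA with anti-K27me3 acceptor beads, biotinylated anti-H3 (3 nM) and streptavidin donor beads. EC50 from DMSO-normalized dose-response curves; duplicate plate assessed viability.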

PRC2 containing wt EZH2 [2] = target: T1, PRC2 containing wt EZH2 (Homo sapiens (Human), UniProt Q15910); assay: EZH2 residence time assay (100-fold dilution of pre-formed enzyme-inhibitor complex); format: biochemical
Experimental: EZH2 residence time assay: Compound residence times were assessed by monitoring the recovery of enzyme activity following a 100-fold dilution of pre-formed enzyme-inhibitor complex (dilution reaction), and comparing it to the activity of an undiluted control with the same final concentrations of all reagents (control reaction). Enzyme activity was measured by incorporation of ^3H-SAM into a biotinylated H3 peptide. […] For the control reaction, 0.202 nM PRC2 was pre-incubated with 1 μM activating peptide, 1.01 μM SAM, 1.01 μM ^3H-SAM, and compound at 6.06 times its Ki for 2 h in 138.6 μL of buffer, then the reaction was initiated by the addition of 1.4 μL 500 μM substrate peptide in water. Reactions were quenched at various time points spanning up to 10 hours, by transferring 8 μL aliquots from the reaction vessel to a plate containing 8 μL per well of STOP solution (50 mM Tris pH 8.5, 200 mM EDTA, 2 mM SAH). After the last time point, 12 μL of the quenched solutions were transferred to a streptavidin coated FlashPlate (PerkinElmer) containing 40 μL per well of STOP solution, incubated 1-8 h, washed, and read in a TopCount plate reader (PerkinElmer). A custom script was used to fit control reaction progress data to a straight line and dilution reaction progress data:
Where y is the product formed, t is the reaction time, vi is the initial velocity, vs is the steady state velocity, and kobs is the rate constant for the transition from the initial velocity phase of the curve to the steady state velocity phase of the curve. In fitting the dilution reaction progress data, vs was constrained to the slope of the line fitted to the control reaction progress data. The fitted value of kobs was then transformed into residence time:
Where τ is residence time, Ki is the inhibition constant, [EI] is the calculated equilibrium concentration of enzyme-inhibitor complex, [E] is the calculated equilibrium concentration of free enzyme, and [I] is the calculated equilibrium concentration of free inhibitor.

PRC2 containing wt EZH2 [3] = target: T1, PRC2 containing wt EZH2; assay: EZH2 biochemical assay (IC50), 3H-SAM incorporation into biotinylated H3 peptide; conditions: 30 pM PRC2 containing wt EZH2, 3-5 h pre-incubation
Procedure, shortened: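 The PRC2 pentamer with wt EZH2 (30 pM) was pre-incubated for 3-5 h with 450 nM SAM plus 450 nM ³H-SAM, 2 µM H3K27me3 activating peptide and compound (0.8% DMSO) in Tris at pH 8.5. Biotinylated H3K27me1 peptide was added and the reaction ran 18-22 h at RT. Incorporated ³H was captured on streptavidin plates, and IC50 was taken from a four-parameter fit.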

[4] = HeLa cell assay, Table 3 classes, read-out: EC50 Cellular Activity
[5] = Homo sapiens, HeLa, HeLa cell assay, Table 3 classes, read-out: EC50 Cellular Activity
[6] = Homo sapiens, HeLa, 72 h, HeLa cells, 72 hrs, read-out: EZH2 Cell H3K27me3 Alpha HeLa (EC50 K27me3)
[7] = HeLa cells, 72 hrs, read-out: EZH2 Cell H3K27me3 Alpha HeLa (EC50 K27me3)

T1 sequence (Q15910 whole entry): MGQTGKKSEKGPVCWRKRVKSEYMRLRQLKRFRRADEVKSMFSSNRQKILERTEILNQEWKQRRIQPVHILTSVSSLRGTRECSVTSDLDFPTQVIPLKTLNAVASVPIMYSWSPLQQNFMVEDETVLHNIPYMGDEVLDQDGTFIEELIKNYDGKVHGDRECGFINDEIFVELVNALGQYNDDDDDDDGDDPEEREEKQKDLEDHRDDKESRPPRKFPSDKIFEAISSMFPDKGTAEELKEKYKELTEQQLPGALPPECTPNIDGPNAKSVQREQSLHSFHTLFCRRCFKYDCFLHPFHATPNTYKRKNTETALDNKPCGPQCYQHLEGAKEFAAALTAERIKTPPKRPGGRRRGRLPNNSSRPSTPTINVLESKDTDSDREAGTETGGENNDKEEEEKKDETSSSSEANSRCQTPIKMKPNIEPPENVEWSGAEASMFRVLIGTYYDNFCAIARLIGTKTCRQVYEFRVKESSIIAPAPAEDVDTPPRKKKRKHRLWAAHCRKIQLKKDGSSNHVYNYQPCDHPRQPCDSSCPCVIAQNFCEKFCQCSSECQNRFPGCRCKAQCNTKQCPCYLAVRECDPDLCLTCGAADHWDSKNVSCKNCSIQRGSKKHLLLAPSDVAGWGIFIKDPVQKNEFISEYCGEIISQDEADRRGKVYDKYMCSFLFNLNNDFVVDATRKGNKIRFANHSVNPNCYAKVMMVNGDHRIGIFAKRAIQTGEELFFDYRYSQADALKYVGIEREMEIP
T1 sequence (O75530 whole entry partner): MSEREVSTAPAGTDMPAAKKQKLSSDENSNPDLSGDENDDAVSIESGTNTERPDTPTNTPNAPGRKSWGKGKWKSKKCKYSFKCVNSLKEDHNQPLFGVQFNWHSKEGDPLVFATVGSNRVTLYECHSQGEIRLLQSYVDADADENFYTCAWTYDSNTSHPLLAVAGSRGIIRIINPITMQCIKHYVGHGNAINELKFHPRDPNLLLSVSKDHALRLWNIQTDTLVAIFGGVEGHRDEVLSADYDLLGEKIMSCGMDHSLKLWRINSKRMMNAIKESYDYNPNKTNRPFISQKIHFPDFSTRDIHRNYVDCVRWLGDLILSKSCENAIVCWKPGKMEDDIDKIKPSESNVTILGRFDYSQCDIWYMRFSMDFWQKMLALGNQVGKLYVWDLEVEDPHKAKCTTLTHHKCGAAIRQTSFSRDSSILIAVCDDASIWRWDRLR
T1 sequence (Q15022 whole entry partner): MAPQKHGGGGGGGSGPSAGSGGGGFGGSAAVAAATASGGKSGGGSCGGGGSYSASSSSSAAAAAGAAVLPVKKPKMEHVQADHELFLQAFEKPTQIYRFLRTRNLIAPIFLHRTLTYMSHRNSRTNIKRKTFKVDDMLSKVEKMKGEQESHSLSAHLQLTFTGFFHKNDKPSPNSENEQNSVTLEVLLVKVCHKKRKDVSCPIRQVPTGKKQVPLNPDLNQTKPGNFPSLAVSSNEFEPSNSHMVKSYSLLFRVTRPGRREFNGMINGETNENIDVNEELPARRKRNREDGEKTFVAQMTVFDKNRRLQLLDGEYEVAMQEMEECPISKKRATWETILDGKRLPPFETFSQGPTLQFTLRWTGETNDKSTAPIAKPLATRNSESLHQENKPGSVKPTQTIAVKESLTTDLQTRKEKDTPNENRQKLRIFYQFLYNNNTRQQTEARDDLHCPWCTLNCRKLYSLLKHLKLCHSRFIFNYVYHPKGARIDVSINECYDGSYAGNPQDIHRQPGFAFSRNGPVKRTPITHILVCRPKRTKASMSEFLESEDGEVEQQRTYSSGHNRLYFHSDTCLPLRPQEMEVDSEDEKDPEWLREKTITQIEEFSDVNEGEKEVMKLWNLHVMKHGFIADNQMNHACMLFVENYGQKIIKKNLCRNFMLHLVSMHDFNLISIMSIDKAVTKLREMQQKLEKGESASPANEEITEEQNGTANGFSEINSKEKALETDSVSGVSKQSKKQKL
T1 sequence (Q09028 whole entry partner): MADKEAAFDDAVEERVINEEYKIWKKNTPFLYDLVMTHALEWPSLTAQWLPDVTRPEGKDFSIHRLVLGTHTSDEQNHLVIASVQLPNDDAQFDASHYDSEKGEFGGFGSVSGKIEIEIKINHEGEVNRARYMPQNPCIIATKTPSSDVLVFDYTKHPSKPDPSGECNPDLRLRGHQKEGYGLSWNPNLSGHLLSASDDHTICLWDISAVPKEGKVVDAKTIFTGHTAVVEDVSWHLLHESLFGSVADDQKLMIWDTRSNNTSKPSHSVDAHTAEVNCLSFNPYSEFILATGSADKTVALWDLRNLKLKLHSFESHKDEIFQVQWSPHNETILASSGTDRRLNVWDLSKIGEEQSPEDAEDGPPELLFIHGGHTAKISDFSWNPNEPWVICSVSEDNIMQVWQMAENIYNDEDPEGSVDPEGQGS
T1 sequence (Q6ZN18 whole entry partner): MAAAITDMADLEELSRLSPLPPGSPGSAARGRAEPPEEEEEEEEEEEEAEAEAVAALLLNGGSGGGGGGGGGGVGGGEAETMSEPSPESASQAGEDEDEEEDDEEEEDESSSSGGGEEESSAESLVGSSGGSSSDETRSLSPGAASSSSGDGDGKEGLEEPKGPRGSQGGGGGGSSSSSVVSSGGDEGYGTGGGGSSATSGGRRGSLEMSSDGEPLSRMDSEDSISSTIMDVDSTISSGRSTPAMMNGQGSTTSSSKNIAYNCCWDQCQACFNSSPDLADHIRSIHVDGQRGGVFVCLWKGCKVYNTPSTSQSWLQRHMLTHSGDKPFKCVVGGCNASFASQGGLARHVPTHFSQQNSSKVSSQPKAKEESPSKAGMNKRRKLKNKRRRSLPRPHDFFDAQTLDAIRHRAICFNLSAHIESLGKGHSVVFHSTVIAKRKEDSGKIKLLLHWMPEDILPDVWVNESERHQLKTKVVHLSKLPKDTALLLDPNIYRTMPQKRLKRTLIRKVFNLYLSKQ

Row | Compound | EC50 [1, 4] [nM] | residence time (PRC2 containing wt EZH2 [2]) | EC50 [1, 6] [nM] | IC50 (PRC2 containing wt EZH2 [3]; read-out: EZH2 (IC50)) [nM] | other results
1 | CSc1cc(C)[nH]c(=O)c1CNC(=O)c1c(C)n([C@H](C)C2OCC(NC(C)(C)C)CO2)c2ccccc12 (single isomer, unassigned) [drawing 224] | < 5 | A (value of greater than 35 hours) |  |  | 
2 | CSc1cc(C)[nH]c(=O)c1CNC(=O)c1c(C)n([C@H](C)C23CC(NC4COC4)(C2)C3)c2ccccc12 [drawing 234] |  | 300 to 2100 min |  |  | EC50 [1, 5]: < 5 nM
3 | Cc1cc(C)c(CNC(=O)c2c(C)n([C@H](C)C3CCC(NC4COC4)CC3)c3ccccc23)c(=O)[nH]1 (single isomer, unassigned) [drawing 210] | 25 to 125 | C (a t value of greater than 0.5 hours but less or equal than 5 hours) |  |  | 
4 | CSc1cc(C)[nH]c(=O)c1CNC(=O)c1c(C)n([C@H](C)C2CCC(O)CC2)c2ccccc12 (single isomer, unassigned) [drawing 251] | < 5 | A (value of greater than 35 hours) |  |  | 
5 | Cc1cc(Cl)c(CNC(=O)c2c(C)n([C@H](C)C3CCC(NC4(C)COC4)CC3)c3ccccc23)c(=O)[nH]1 (single isomer, unassigned) [drawing 201] | 25 to 125 | D (a t value of less or equal than 0.5 hours) |  |  | 
6 | Cc1cc(C)c(CNC(=O)c2c(C)n([C@H](C)C3CCC(NC4(C)COC4)CC3)c3ccccc23)c(=O)[nH]1 (single isomer, unassigned) [drawing 203] | 25 to 125 | D (a t value of less or equal than 0.5 hours) |  |  | 
7 | CSc1cc(C)[nH]c(=O)c1CNC(=O)c1c(C)n([C@H](C)C2CCC(NC3COC3)CC2)c2ccccc12 (single isomer, unassigned) [drawing 213] | < 5 | A (value of greater than 35 hours) |  |  | 
8 | Cc1cc(C)c(CNC(=O)c2c(C)n([C@H](C)C34CC(N(C)CC(F)(F)F)(C3)C4)c3ccccc23)c(=O)[nH]1 |  |  |  |  | EC50 [1, 5]: > 125 nM; residence time (PRC2 containing wt EZH2 [2]; read-out: Residence Time): < 30 min
9 | Cc1cc(Cl)c(CNC(=O)c2c(C)n([C@H](C)C3OCC(NC4(C)COC4)CO3)c3ccccc23)c(=O)[nH]1 (single isomer, unassigned) [drawing 225] | > 125 | D (a t value of less or equal than 0.5 hours) |  |  | 
10 | CSc1cc(C)[nH]c(=O)c1CNC(=O)c1c(C)n([C@H](C)C2OCC(NC(C)(C)C)CO2)c2ccccc12 (single isomer, unassigned) [drawing 223] | 25 to 125 | D (a t value of less or equal than 0.5 hours) |  |  | 
11 | CSc1cc(C)[nH]c(=O)c1CNC(=O)c1c(C)n([C@H](C)C2CCN(CC(F)(F)F)CC2)c2ccccc12 [Example 12, (R)-2-methyl-N-((6-methyl-4-(methylthio)-2-oxo-1,2-dihydropyridin-3-yl)methyl)-1-(1-(1-(2,2,2-trifluoroethyl)piperidin-4-yl)ethyl)-1H-indole-3-carboxamide] |  |  | < 10 |  | IC50 (PRC2 containing wt EZH2 [3]; EZH2 (IC50)): < 0.5 nM
12 | CSc1cc(C)[nH]c(=O)c1CNC(=O)c1c(C)n([C@H](C)C2CCN(CC(F)(F)F)CC2)c2ncncc12 [Example 73, (R)-6-methyl-N-((6-methyl-4-(methylthio)-2-oxo-1,2-dihydropyridin-3-yl)methyl)-7-(1-(1-(2,2,2-trifluoroethyl)piperidin-4-yl)ethyl)-7H-pyrrolo[2,3-d]pyrimidine-5-carboxamide] |  |  | < 10 |  | IC50 (PRC2 containing wt EZH2 [3]; EZH2 (IC50)): < 0.5 nM
13 | CSc1cc(C)[nH]c(=O)c1CNC(=O)c1c(C)n([C@H](C)C2CCC(NC3COC3)CC2)c2ncncc12 (stereo partly drawn) [Example 63, 6-methyl-N-((6-methyl-4-(methylthio)-2-oxo-1,2-dihydropyridin-3-yl)methyl)-7-((R)-1-(4-(oxetan-3-ylamino)cyclohexyl)ethyl)-7H-pyrrolo[2,3-d]pyrimidine-5-carboxamide] |  |  | 10 to 100 | < 0.5 | 
14 | CSc1cc(C)[nH]c(=O)c1CNC(=O)c1c(C)n([C@H](C)CO)c2ccccc12 [Example 31, (R)-1-(1-hydroxypropan-2-yl)-2-methyl-N-((6-methyl-4-(methylthio)-2-oxo-1,2-dihydropyridin-3-yl)methyl)-1H-indole-3-carboxamide] |  |  | > 100 | > 5 | 
15 | CSc1cc(C)[nH]c(=O)c1CNC(=O)c1c(C)n([C@H](C)C2CCC(NC3(CF)COC3)CC2)c2ncccc12 (single isomer, unassigned) [155 (isomer 1)] |  |  | < 10 | < 0.5 | 
16 | CSc1cc(C)[nH]c(=O)c1CNC(=O)c1c(C)n([C@H](C)[C@H]2OC[C@H](N3CCC34COC4)CO2)c2ccccc12 (single isomer, unassigned; isomer 2) [150 (isomer 2)] |  |  |  | < 0.5 | EC50 [1, 7]: < 10 nM
17 | CSc1cc(C)[nH]c(=O)c1CNC(=O)c1c(C)n([C@H](C)C2CCC(N3CC(OC4CC4)C3)CC2)c2ncc(Cl)cc12 (stereo partly drawn) [Example 124, 5-chloro-1-((R)-1-(4-(3-cyclopropoxyazetidin-1-yl)cyclohexyl)ethyl)-2-methyl-N-((6-methyl-4-(methylthio)-2-oxo-1,2-dihydropyridin-3-yl)methyl)-1H-pyrrolo[2,3-b]pyridine-3-carboxamide] |  |  | < 10 | < 0.5 | 
18 | CSc1cc(C)[nH]c(=O)c1CNC(=O)c1c(C)n([C@H](C)C2CCC(N3CC(F)C3)CC2)c2cc(F)ccc12 (stereo partly drawn) [Example 83, (R)-6-fluoro-1-(1-(4-(3-fluoroazetidin-1-yl)cyclohexyl)ethyl)-2-methyl-N-((6-methyl-4-(methylthio)-2-oxo-1,2-dihydropyridin-3-yl)methyl)-1H-indole-3-carboxamide] |  |  | < 10 |  | IC50 (PRC2 containing wt EZH2 [3]; EZH2 (IC50)): < 0.5 nM
19 | CSc1cc(C)[nH]c(=O)c1CNC(=O)c1c(C)n([C@H](C)C2CCN(C(=O)CN(C)C)CC2)c2ccccc12 [Example 142, (R)-1-(1-(1-(dimethylglycyl)piperidin-4-yl)ethyl)-2-methyl-N-((6-methyl-4-(methylthio)-2-oxo-1,2-dihydropyridin-3-yl)methyl)-1H-indole-3-carboxamide] |  |  | > 100 | < 0.5 | 
20 | CSc1cc(C)[nH]c(=O)c1CNC(=O)c1c(C)n([C@H](C)C2OCC(N(C)C)CO2)c2ccccc12 (single isomer, unassigned) [7 (isomer 1)] |  |  |  | 0.5 to 5 | EC50 [1, 7]: > 100 nM
21 | CSc1cc(C)[nH]c(=O)c1CNC(=O)c1c(C)n([C@H](C)C2CCC(N3CC(O)(C(C)C)C3)CC2)c2ncccc12 (stereo partly drawn) [Example 158, 1-((R)-1-(4-(3-hydroxy-3-isopropylazetidin-1-yl)cyclohexyl)ethyl)-2-methyl-N-((6-methyl-4-(methylthio)-2-oxo-1,2-dihydropyridin-3-yl)methyl)-1H-pyrrolo[2,3-b]pyridine-3-carboxamide] |  |  | > 100 | < 0.5 | 
22 | CNC1COC([C@@H](C)n2c(C)c(C(=O)NCc3c(SC)cc(C)[nH]c3=O)c3ccccc32)OC1 (stereo partly drawn) [Example 17, (R)-2-methyl-N-((6-methyl-4-(methylthio)-2-oxo-1,2-dihydropyridin-3-yl)methyl)-1-(1-(5-(methylamino)-1,3-dioxan-2-yl)ethyl)-1H-indole-3-carboxamide] |  |  | < 10 | < 0.5 | 
23 | COC[C@@H](C)n1c(C)c(C(=O)NCc2c(SC)cc(C)[nH]c2=O)c2ccccc21 [Example 32, (R)-1-(1-methoxypropan-2-yl)-2-methyl-N-((6-methyl-4-(methylthio)-2-oxo-1,2-dihydropyridin-3-yl)methyl)-1H-indole-3-carboxamide] |  |  | 10 to 100 |  | IC50 (PRC2 containing wt EZH2 [3]; EZH2 (IC50)): < 0.5 nM
24 | COC1CCC([C@@H](C)n2c(C)c(C(=O)NCc3c(SC)cc(C)[nH]c3=O)c3cncnc32)CC1 (single isomer, unassigned) [41 (isomer 1)] |  |  | < 10 |  | IC50 (PRC2 containing wt EZH2 [3]; EZH2 (IC50)): < 0.5 nM
25 | CO[C@@H]1CN(C2CCC([C@@H](C)n3c(C)c(C(=O)NCc4c(SC)cc(C)[nH]c4=O)c4cccnc43)CC2)C[C@H]1F (single isomer, unassigned) [104 (isomer 2)] |  |  |  | 0.5 to 5 | EC50 [1, 7]: > 100 nM
